Assay results reported in patent US20240246955A1, “TROPOMYOSIN RECEPTOR KINASE (TRK) DEGRADATION COMPOUNDS AND METHODS OF USE” (CULLGEN (SHANGHAI), INC., priority 2021, published 2024).

Key:
[1] = test system: KM12 cells; experiment: KM12 cell viability assay (CellTiter-Glo); format: cell-based; settings: for IC50: Homo sapiens, 72 h, KM12 cells, 3 days, CellTiter-Glo; for viability of KM12 cells: 11-point 3-fold serial dilution, 3 days (FIG. 3)
Method: The kinase activity of TRK is known to play important roles in tumors expressing TRK-fusion proteins, as TRK kinase inhibitors compromise cell proliferation, survival, and induce marked clinical responses (Amatu et al., 2016; Drilon et al., 2018; Drilon et al., 2017; Khotskaya et al., 2017). KM12 cells seeded in 96-well plates were treated with heterobifunctional compounds following a 11-point 3-fold serial dilution. Three days after treatment, cell viability was determined using the CellTiter-Glo kit, and normalized to the mean values of 3 replicates of untreated cells. Dose-dependent response was analyzed following the least-squares non-linear regression method using the GraphPad Prism software. Each data point in the figure represents the mean values of three technical replicates ±standard deviation.
KM12 cells seeded in 96-well plates were treated with heterobifunctional compounds following a 11-point 3-fold serial dilution for 3 days.
KM12, TRKA G595R mutated KM12, HEL, and other cells were cultured at 37° C. with 5% CO2 in DMEM or RPMI 1640 Medium supplemented with 10% fetal bovine serum. Cells were authenticated using the short tandem repeat (STR) assays. Mycoplasma test results were negative.
Cells were seeded at a density of 5000 cells per well in 96-well assay plates and treated with test compounds following a 11-point 3-fold serial dilution. Three days later, cell viability was determined using the CellTiter-Glo assay kit (Promega) according to the manufacturer's instructions. The dose-response curves were determined and IC50 values were calculated using the GraphPad Prism software following a nonlinear regression (least squares fit) method.

[2] = target: T1, TPM3-TRKA fusion protein (Homo sapiens, UniProt P04629); experiment: TPM3-TRKA degradation in KM12 cells (Western blot); format: cell-based; settings: 16 hours, TRK protein, immunoblot; for inhibition at 0.01 µM: 10 nM; for inhibition at 0.1 µM: 100 nM
T1 construct: TPM3 (N-terminal part of tropomyosin alpha-3, natural fusion partner); endogenous in cells; host or cells: KM12 colon cancer cells; the other entry of the earlier key: TPM3 (P06753, Tropomyosin alpha-3 chain)
T1 sequence (P04629 with tags, fused parts or gaps): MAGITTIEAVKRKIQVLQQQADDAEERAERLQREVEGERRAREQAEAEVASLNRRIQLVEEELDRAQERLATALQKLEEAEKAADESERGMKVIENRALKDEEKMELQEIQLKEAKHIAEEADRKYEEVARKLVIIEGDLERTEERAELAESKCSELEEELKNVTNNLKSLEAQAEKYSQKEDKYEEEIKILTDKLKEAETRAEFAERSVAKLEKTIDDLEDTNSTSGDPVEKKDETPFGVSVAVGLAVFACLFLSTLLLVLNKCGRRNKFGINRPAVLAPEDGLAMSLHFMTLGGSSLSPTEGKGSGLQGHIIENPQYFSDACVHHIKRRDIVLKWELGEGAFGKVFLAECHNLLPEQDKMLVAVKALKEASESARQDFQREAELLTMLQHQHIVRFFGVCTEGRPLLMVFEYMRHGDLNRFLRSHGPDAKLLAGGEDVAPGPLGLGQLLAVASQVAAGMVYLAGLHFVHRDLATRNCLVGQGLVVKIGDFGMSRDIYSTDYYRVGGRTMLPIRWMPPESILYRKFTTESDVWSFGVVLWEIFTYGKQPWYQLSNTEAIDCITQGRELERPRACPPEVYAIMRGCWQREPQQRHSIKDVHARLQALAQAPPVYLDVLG
Method: Specific exemplary heterobifunctional compounds were characterized in KM12 cells. KM12 cells that express TPM3-TRKA fusion protein were treated with 10 nM or 100 nM heterobifunctional compounds disclosed herein or their corresponding warheads/inhibitors for 16 hours. Cells were collected, lysed and subject to immunoblotting using an antibody specific to TRK proteins.
KM12 cells were treated with heterobifunctional compounds at 10 nM or 100 nM for 16 hours.
Cultured cells were washed with cold PBS once and lysed in cold RIPA buffer supplemented with protease inhibitors and phosphatase inhibitors (Beyotime Biotechnology). The solutions were then incubated at 4° C. for 30 minutes with gentle agitation to fully lyse cells. Cell lysates were centrifuged at 13,000 rpm for 10 minutes at 4° C. and pellets were discarded. Total protein concentrations in the lysates were determined by BCA assays (Beyotime Biotechnology). Cell lysates were mixed with Laemmli loading buffer to 1× and heated at 99° C. for 5 min. Proteins were resolved on SDS-PAGE and visualized by chemiluminescence. Images were taken by a ChemiDoc MP Imaging system (Bio-Rad). Protein bands were quantitated using the software provided by Bio-Rad.
The percentage of TRK protein degradation of each compound at 10 nM and 100 nM was determined in KM12 cells as described in Methods. The percentage of degradation of each compound was indicated in the following categories: N/A: data not available; −: no degradation; +: degradation less than 50%; ++: degradation equal or greater than 50% but less than […]; +++: degradation equal or greater than 80%.

Structure (SMILES)	IC50 [1] [nM]	viability of KM12 cells [1]	inhibition at 0.01 µM [2] [%]	inhibition at 0.1 µM [2] [%]
COCCN1C[C@@H](NC(=O)Nc2c(C)c(-c3cnc(N4CCN(C(=O)CCOCCOCCOCCOCCOCCNC(=O)C[C@H](NC(=O)[C@@H]5C[C@@H](O)CN5C(=O)[C@@H](NC(=O)C5(F)CC5)C(C)(C)C)c5ccc(-c6scnc6C)cc5)CC4)nc3)nn2-c2ccccc2)[C@H](c2cccc(F)c2)C1 [CPD-001, (2S,4R)-1-((S)-2-(1-fluorocyclopropane-1-carboxamido)-3,3-dimethylbutanoyl)-N-((S)-22-(4-(5-(5-(3-((3S,4R)-4-(3-fluorophenyl)-1-(2-methoxyethyl)pyrrolidin-3-yl)ureido)-4-methyl-1-phenyl-1H-pyrazol-3-yl)pyrimidin-2-yl)piperazin-1-yl)-1-(4-(4-methylthiazol-5-yl)phenyl)-3,22-dioxo-7,10,13,16,19-pentaoxa-4-azadocosyl)-4-hydroxypyrrolidine-2-carboxamide]	518	–	–	–
COCCN1C[C@@H](NC(=O)Nc2c(C)c(-c3cnc(N4CCN(C(=O)CCCNc5ccc6c(c5)C(=O)N(C5CCC(=O)NC5=O)C6=O)CC4)nc3)nn2-c2ccccc2)[C@H](c2cccc(F)c2)C1 (stereo partly drawn) [CPD-002, 1-(3-(2-(4-(4-((2-(2,6-dioxopiperidin-3-yl)-1,3-dioxoisoindolin-5-yl)amino)butanoyl)piperazin-1-yl)pyrimidin-5-yl)-4-methyl-1-phenyl-1H-pyrazol-5-yl)-3-((3S,4R)-4-(3-fluorophenyl)-1-(2-methoxyethyl)pyrrolidin-3-yl)urea]	9.7	inhibited the viability	> 80	> 80
COCCN1C[C@@H](NC(=O)Nc2c(C)c(-c3cnc(N4CCN(C(=O)CNc5cccc6c5C(=O)N(C5CCC(=O)NC5=O)C6=O)CC4)nc3)nn2-c2ccccc2)[C@H](c2cccc(F)c2)C1 (stereo partly drawn) [CPD-003, 1-(3-(2-(4-((2-(2,6-dioxopiperidin-3-yl)-1,3-dioxoisoindolin-4-yl)glycyl)piperazin-1-yl)pyrimidin-5-yl)-4-methyl-1-phenyl-1H-pyrazol-5-yl)-3-((3S,4R)-4-(3-fluorophenyl)-1-(2-methoxyethyl)pyrrolidin-3-yl)urea]	5.1	inhibited the viability	> 80	> 80
COCCN1C[C@@H](NC(=O)Nc2c(C)c(-c3cnc(N4CCN(C(=O)CCCNc5cccc6c5C(=O)N(C5CCC(=O)NC5=O)C6=O)CC4)nc3)nn2-c2ccccc2)[C@H](c2cccc(F)c2)C1 (stereo partly drawn) [CPD-004, 1-(3-(2-(4-(4-((2-(2,6-dioxopiperidin-3-yl)-1,3-dioxoisoindolin-4-yl)amino)butanoyl)piperazin-1-yl)pyrimidin-5-yl)-4-methyl-1-phenyl-1H-pyrazol-5-yl)-3-((3S,4R)-4-(3-fluorophenyl)-1-(2-methoxyethyl)pyrrolidin-3-yl)urea]	25.8	–	50 to 800	50 to 800
COCCN1C[C@@H](NC(=O)Nc2c(C)c(-c3cnc(N4CCN(C(=O)CCOCCOCCOCCNc5cccc6c5C(=O)N(C5CCC(=O)NC5=O)C6=O)CC4)nc3)nn2-c2ccccc2)[C@H](c2cccc(F)c2)C1 (stereo partly drawn) [CPD-005, 1-(3-(2-(4-(3-(2-(2-(2-((2-(2,6-dioxopiperidin-3-yl)-1,3-dioxoisoindolin-4-yl)amino)ethoxy)ethoxy)ethoxy)propanoyl)piperazin-1-yl)pyrimidin-5-yl)-4-methyl-1-phenyl-1H-pyrazol-5-yl)-3-((3S,4R)-4-(3-fluorophenyl)-1-(2-methoxyethyl)pyrrolidin-3-yl)urea]	47.3	–	> 80	> 80
COCCN1C[C@@H](NC(=O)Nc2c(C)c(-c3cnc(N4CCN(C(=O)CCCCCCCNc5ccc6c(c5)C(=O)N(C5CCC(=O)NC5=O)C6=O)CC4)nc3)nn2-c2ccccc2)[C@H](c2cccc(F)c2)C1 (stereo partly drawn) [CPD-006, 1-(3-(2-(4-(8-((2-(2,6-dioxopiperidin-3-yl)-1,3-dioxoisoindolin-5-yl)amino)octanoyl)piperazin-1-yl)pyrimidin-5-yl)-4-methyl-1-phenyl-1H-pyrazol-5-yl)-3-((3S,4R)-4-(3-fluorophenyl)-1-(2-methoxyethyl)pyrrolidin-3-yl)urea]	10.3	–	> 80	> 80
COCCN1C[C@@H](NC(=O)Nc2c(C)c(-c3cnc(N4CCN(C(=O)CCCCCNc5cccc6c5C(=O)N(C5CCC(=O)NC5=O)C6=O)CC4)nc3)nn2-c2ccccc2)[C@H](c2cccc(F)c2)C1 (stereo partly drawn) [CPD-007, 1-(3-(2-(4-(6-((2-(2,6-dioxopiperidin-3-yl)-1,3-dioxoisoindolin-4-yl)amino)hexanoyl)piperazin-1-yl)pyrimidin-5-yl)-4-methyl-1-phenyl-1H-pyrazol-5-yl)-3-((3S,4R)-4-(3-fluorophenyl)-1-(2-methoxyethyl)pyrrolidin-3-yl)urea]	10.6	–	> 80	> 80
COCCN1C[C@@H](NC(=O)Nc2c(C)c(-c3cnc(N4CCN(C(=O)CCCCCNc5ccc6c(c5)C(=O)N(C5CCC(=O)NC5=O)C6=O)CC4)nc3)nn2-c2ccccc2)[C@H](c2cccc(F)c2)C1 (stereo partly drawn) [CPD-008, 1-(3-(2-(4-(6-((2-(2,6-dioxopiperidin-3-yl)-1,3-dioxoisoindolin-5-yl)amino)hexanoyl)piperazin-1-yl)pyrimidin-5-yl)-4-methyl-1-phenyl-1H-pyrazol-5-yl)-3-((3S,4R)-4-(3-fluorophenyl)-1-(2-methoxyethyl)pyrrolidin-3-yl)urea]	10.6	–	> 80	> 80
COCCN1C[C@@H](NC(=O)Nc2c(C)c(-c3cnc(N4CCN(C(=O)CCCCCCCNc5cccc6c5C(=O)N(C5CCC(=O)NC5=O)C6=O)CC4)nc3)nn2-c2ccccc2)[C@H](c2cccc(F)c2)C1 (stereo partly drawn) [CPD-009, 1-(3-(2-(4-(8-((2-(2,6-dioxopiperidin-3-yl)-1,3-dioxoisoindolin-4-yl)amino)octanoyl)piperazin-1-yl)pyrimidin-5-yl)-4-methyl-1-phenyl-1H-pyrazol-5-yl)-3-((3S,4R)-4-(3-fluorophenyl)-1-(2-methoxyethyl)pyrrolidin-3-yl)urea]	13.6	–	> 80	> 80
COCCN1C[C@@H](NC(=O)Nc2c(C)c(-c3cnc(N4CCN(C(=O)CCOCCOCCOCCOCCNc5cccc6c5C(=O)N(C5CCC(=O)NC5=O)C6=O)CC4)nc3)nn2-c2ccccc2)[C@H](c2cccc(F)c2)C1 (stereo partly drawn) [CPD-010, 1-(3-(2-(4-(1-((2-(2,6-dioxopiperidin-3-yl)-1,3-dioxoisoindolin-4-yl)amino)-3,6,9,12-tetraoxapentadecan-15-oyl)piperazin-1-yl)pyrimidin-5-yl)-4-methyl-1-phenyl-1H-pyrazol-5-yl)-3-((3S,4R)-4-(3-fluorophenyl)-1-(2-methoxyethyl)pyrrolidin-3-yl)urea]	86.1	–	50 to 800	> 80
COCCN1C[C@@H](NC(=O)Nc2c(C)c(-c3cnc(N4CCN(C(=O)CNC(=O)C[C@H](NC(=O)[C@@H]5C[C@@H](O)CN5C(=O)[C@@H](NC(=O)C5(F)CC5)C(C)(C)C)c5ccc(-c6scnc6C)cc5)CC4)nc3)nn2-c2ccccc2)[C@H](c2cccc(F)c2)C1 [CPD-011, (2S,4R)-1-((S)-2-(1-fluorocyclopropane-1-carboxamido)-3,3-dimethylbutanoyl)-N-((S)-3-((2-(4-(5-(5-(3-((3S,4R)-4-(3-fluorophenyl)-1-(2-methoxyethyl)pyrrolidin-3-yl)ureido)-4-methyl-1-phenyl-1H-pyrazol-3-yl)pyrimidin-2-yl)piperazin-1-yl)-2-oxoethyl)amino)-1-(4-(4-methylthiazol-5-yl)phenyl)-3-oxopropyl)-4-hydroxypyrrolidine-2-carboxamide]	119	–	< 50	50 to 800
